Format in all cases: cell-based, Chinese Hamster
Assay [1] deals with Aβ production in CHO cells overexpressing APP751 and PS1 WT. Description: Secreted Aβ ELISA in CHO cells overexpressing APP751 and PS1 during induced apoptosis. On the procedure: We examined Aβ generation induced by apoptosis in CHO cell lines. We used CHO cell lines stably overexpressing both APP751 and PS1 WT. For the induction of apoptosis, we used 1 μM staurosporine (STS) in serum free media. Secreted Aβ was measured in the conditioned media of cells treated with STS for 6 hrs using a sensitive ELISA assay [courtesy of Dr. Dennis Selkoe; M. S. Wolfe et al., Nature 398, 513-7 (1999)].
Treatment with either STS for 6 hrs or etoposide for 12 hrs induced from 10 to 20% of cell death assayed by MTT assay, which is a colorimetric short-term suspension culture assay in which the yellow tetrazolium salt (MTT) is reduced in metabolically active cells to form insoluble purple formazan crystals, which are solubilized by the addition of a detergent.
Chinese Hamster Ovary (CHO) cells expressing APP751 and BACE (CAB), CHO cells expressing full-length APP and wild-type PS1 (CHO-APP751/PS1) or expressing C99 and wild-type PS1 (CHO-CC99/PS1), H4 human neuroglioma cells expressing APP751 (H4-APP751), mouse embryonic fibroblast (MEF), embryonic stem (ES) cells, and human epithelial A431 cells were grown as described previously (Marambaud, P. et al., Embo J 21, 1948-56 (2002); Cai, H. et al., Nat Neurosci 4, 233-4 (2001); Sato, N. et al., Nat Cell Biol 2, 863-70 (2000); Puglielli, L., Ellis, B. C., Saunders, A. J. & Kovacs, D. M., J Biol Chem 278, 19777-83 (2003); Wolfe, M. S. et al., Nature 398, 513-7 (1999)). For the induction of apoptosis, we used staurosporine or etoposide (Calbiochem (EMD Biosciences, San Diego, Calif.)). For Aβ measurements, cells were seeded at the density of 0.5×10^6 cells per well in 6 well plates. After 48 hours, cells were treated with either STS (1 μM) for 6 hours. […] For time-course experiments, cells were seeded at the density of 2×10^6 cells per 100 mm dish and treated with STS (1 μM) or etoposide (100 μg/mL). At different time points (0, 3, 6, 9, 12 and 24 hours), the cells were scraped, centrifuged and then lysed in buffer containing 1% NP40. Western blot analysis was performed as previously described (Tesco, G., Koh, Y. H. & Tanzi, R. E., J Biol Chem 278, 46074-80 (2003)). Densitometry analysis was performed on a Macintosh computer using the public domain NIH Image program (developed at the U.S. National Institutes of Health and available on the Internet at http://rsb.info.nih.gov/nih-image/).
Secreted Aβ1-total was measured in the conditioned media of untreated cells or of cells treated with STS or STS plus zVAD using a sensitive ELISA (Wolfe, M. S. et al., Nature 398, 513-7 (1999). At least three different experiments were carried out and each experiment was performed at least in triplicate.

Assay [2] deals with BACE. Description: BACE protein levels by Western blot in CHO cells overexpressing APP751 and PS1WT. The text has this:
We examined whether the apoptosis-mediated increase in Aβ generation was associated with changes in the levels and activities of BACE and β-secretase. […] In addition, upregulation of BACE occured also in H4 human neuroglioma (FIG. 3B) and in BACE+/+ mouse fibroblasts (FIG. 3C). BACE−/− mouse fibroblasts were used to show the specificity of the antibody used to detect BACE (FIG. 3C).
Chinese Hamster Ovary (CHO) cells expressing APP751 and BACE (CAB), CHO cells expressing full-length APP and wild-type PS1 (CHO-APP751/PS1) or expressing C99 and wild-type PS1 (CHO-CC99/PS1), H4 human neuroglioma cells expressing APP751 (H4-APP751), mouse embryonic fibroblast (MEF), embryonic stem (ES) cells, and human epithelial A431 cells were grown as described previously (Marambaud, P. et al., Embo J 21, 1948-56 (2002); Cai, H. et al., Nat Neurosci 4, 233-4 (2001); Sato, N. et al., Nat Cell Biol 2, 863-70 (2000); Puglielli, L., Ellis, B. C., Saunders, A. J. & Kovacs, D. M., J Biol Chem 278, 19777-83 (2003); Wolfe, M. S. et al., Nature 398, 513-7 (1999)). For the induction of apoptosis, we used staurosporine or etoposide (Calbiochem (EMD Biosciences, San Diego, Calif.)). For Aβ measurements, cells were seeded at the density of 0.5×10^6 cells per well in 6 well plates. After 48 hours, cells were treated with either STS (1 μM) for 6 hours. […]

In assay [3] the test system is BACE. Description: BACE protein levels by Western blot and densitometry in CAB cells. On the procedure:
(§1) Chinese Hamster Ovary (CHO) cells expressing APP751 and BACE (CAB), CHO cells expressing full-length APP and wild-type PS1 (CHO-APP751/PS1) or expressing C99 and wild-type PS1 (CHO-CC99/PS1), H4 human neuroglioma cells expressing APP751 (H4-APP751), mouse embryonic fibroblast (MEF), embryonic stem (ES) cells, and human epithelial A431 cells were grown as described previously (Marambaud, P. et al., Embo J 21, 1948-56 (2002); Cai, H. et al., Nat Neurosci 4, 233-4 (2001); Sato, N. et al., Nat Cell Biol 2, 863-70 (2000); Puglielli, L., Ellis, B. C., Saunders, A. J. & Kovacs, D. M., J Biol Chem 278, 19777-83 (2003); Wolfe, M. S. et al., Nature 398, 513-7 (1999)). For the induction of apoptosis, we used staurosporine or etoposide (Calbiochem (EMD Biosciences, San Diego, Calif.)). For Aβ measurements, cells were seeded at the density of 0.5×10^6 cells per well in 6 well plates. After 48 hours, cells were treated with either STS (1 μM) for 6 hours. In order to inhibit caspase activation a sister plate of cells was pre-treated with zVAD ([…], Enzyme Systems Products) for 1 hour before STS treatment. For time-course experiments, cells were seeded at the density of 2×10^6 cells per 100 mm dish and treated with STS (1 μM) or etoposide (100 μg/mL). At different time points (0, 3, 6, 9, 12 and 24 hours), the cells were scraped, centrifuged and then lysed in buffer containing 1% NP40. Western blot analysis was performed as previously described (Tesco, G., Koh, Y. H. & Tanzi, R. E., J Biol Chem 278, 46074-80 (2003)). Densitometry analysis was performed on a Macintosh computer using the public domain NIH Image program (developed at the U.S. National Institutes of Health and available on the Internet at http://rsb.info.nih.gov/nih-image/).
It has been previously shown that overexpression of BACE enhances β-secretase cleavage of APP leading to the accumulation of intracellular C99 (Vassar, R. et al., Science 286, 735-41 (1999)). We first asked whether apoptosis/caspase activation leads to accumulation of C99 owing to increased β-secretase activity.

Assay [4] relates to γ-secretase complex proteins. Description: γ-secretase complex protein levels by Western blot in CHO cell lines. On the procedure: as §1, with “Western blot analysis was performed as previously described (Tesco, G., Koh, Y. H. & Tanzi, R. E., J Biol Chem 278, 46074-80 (2003)). Densitometry analysis was performed on a Macintosh computer using the public domain NIH Image program (developed at the U.S. National Institutes of Health and available on the Internet at http://rsb.info.nih.gov/nih-image/).” left out

Where [5] appears, read: 1 μM STS in serum free media, 6 hrs, p<0.05 t-test.
Where [6] appears, read: etoposide 100 μg/mL + 200 μM zVAD, 12 hrs, compared to etoposide treated cells.
Setting [7] is: zVAD 200 μM pretreated 1 hr before STS, compared to STS-treated cells, p<0.05.

Where a SMILES comes first, the peptide text is derived from it. The star is where a group is joined. Cbz = O=C(OCc1ccccc1)*; CH2F = FC*

On to `CN[C@@H]1C[C@H]2O[C@@](C)([C@@H]1OC)n1c3ccccc3c3c4c(c5c6ccccc6n2c5c31)C(=O)NC4` [STS, staurosporine], for which, in assay [1] (setting [5]), the “Secreted Aβ1-42” value is listed as “significantly increased” and the “Secreted Aβtotal” value is “significantly increased”. The compound also displayed an Aβ1-total increase in assay [1] (STS-treated CHO-APP751/PS1 cells, 6 hours) of roughly 2.5 fold. Besides, the BACE protein levels result in the assay on BACE [2] (after 24 hrs of STS treatment) is “significant increase”. The “BACE protein levels increase” value in the assay on BACE [3] (after 6 hours or 24 hours of STS treatment, CAB cells) is on record as roughly 4 fold. In assay [4] (STS treatment, CHO cells overexpressing APP751 and PS1WT and mouse fibroblasts), the “nicastrin and Pen2 protein levels” value was “up-regulated”. Also, the “endogenous nicastrin protein levels” value in assay [4] (six hours after STS treatment, CAB cells) is recorded as “increase”.
As to `COC(=O)C[C@H](NC(=O)[C@H](C)NC(=O)[C@@H](NC(=O)OCc1ccccc1)C(C)C)C(=O)CF` [zVAD] (Cbz-Val-Ala-Asp(OMe)-CH2F), in assay [1] (setting [6]), the “Secreted Aβ42” value is “significantly attenuate” and the “Secreted Aβtotal” value is listed as “significantly attenuate”. Moreover, in assay [1] (setting [7]), the “Secreted Aβ1-42” value was “significantly reduced” and the “Secreted Aβtotal” value is “significantly reduced”. Besides, the “BACE upregulation during STS-induced apoptosis” value in the assay on BACE [2] (zVAD 100 μM, all cell types (CHO, H4 human neuroglioma, BACE+/+ mouse fibroblasts)) was “prevented BACE upregulation”. Moreover, the “BACE accumulation during STS-induced apoptosis” value with BACE [3] (zVAD, both CAB and H4-APP751 cells) was “prevented BACE accumulation”.

These data come from patent US7326540B2, “Methods for identifying compounds that modulate stabilization of secretase-associated proteins” (priority 2003, dated 2008).
